A word on the IC50: it is the point on the concentration scale where inhibition reaches its midpoint.

Where a name gives a salt, the structure may show the parent alone.

One test concerns [^3 H]-GABA uptake. Nature of the test: in vitro inhibition of [^3 H]-GABA uptake (method of Fjalland). It counts as biochemical, Male Wistar rat (cortical tissue). Particulars: rat cortical tissue homogenate; 60 min at 30° C.; pH 7.5; ligand 0.2 nM. The protocol:
Male Wistar rat cortical tissue was gently homogenized by hand using a glass/PTFE homogenizer in 10 volumes of 0.32 M sucrose. Incubation was performed in a 40 mM tris HCl buffer (pH 7.5 at 30° C.) containing […], […], 4 mM MgSO4, 2.3 mM CaCl2 and 10 mM glucose, for 60 min. at 30° C. Ligand concentration was 0.2 nM.
As for `O=C(O)[C@@H]1CCCN(CCOC=C(c2ccccc2)c2ccccc2)C1` [Example 2, (R)-1-[2-[[2,2-Diphenylethenyl]oxy]ethyl]-3-piperidine carboxylic acid hydrochloride], the midpoint of inhibition, the IC50, lay at 104 nM.

On to `Cc1ccsc1C(=COCCN1CCC[C@@H](C(=O)O)C1)c1sccc1C` [Example 12, (R)-1-[2-[[2,2-bis(3-Methyl-2-thienyl)ethenyl]oxy]ethyl]-3-piperidine carboxylic acid], for which half-maximal inhibition (IC50) was put at 8 nM.

In the case of `Cc1ccccc1C(=COCCN1CCC[C@@H](C(=O)O)C1)c1ccccc1C` [Example 17, (R)-1-[2-[[2,2-bis(2-Methylphenyl)ethenyl]oxy]ethyl]-3-piperidine carboxylic acid hydrochloride], inhibition was half-maximal at 15 nM (IC50).

Consider `Cc1ccccc1C(=COCCN1CCC=C(C(=O)O)C1)c1ccccc1C` [Example 13, 1-[2-[[2,2-bis(2-Methylphenyl)ethenyl]oxy]ethyl]-1,2,5,6-tetrahydro-3-pyridine carboxylic acid hydrochloride], for which the IC50 was 26 nM. This IC50 is about 1.7-fold higher than that of the compound before.

`Cc1ccccc1C(=COCCN1CCC[C@@H](C(=O)O)C1)c1ccc(F)cc1C` [Example 14, (R)-1-[2-[[2-(4-Fluoro-2-methylphenyl)-2-(2-methylphenyl)ethenyl]oxy]ethyl]-3-piperidine carboxylic acid hydrochloride] had an IC50 of 30 nM.

In the case of `O=C(O)[C@@H]1CCCN(CCOCC(c2ccccc2)c2ccccc2)C1` [Example 33, (R)-1-[2-[[2,2-Diphenylethyl]oxy]ethyl]-3-piperidine carboxylic acid], 127 nM corresponded to half-maximal inhibition (IC50). Against the preceding compound, the IC50 is about 4.2-fold higher.

Regarding `CCc1ccccc1C(=COCCN1CCC=C(C(=O)O)C1)c1ccccc1CC` [Example 23, 1-[2-[[2,2-bis(2-Ethylphenyl)ethenyl]oxy]ethyl]-1,2,5,6-tetrahydro-3-pyridine carboxylic acid hydrochloride], the IC50 was determined as 47 nM.

Compound `Cc1ccccc1C(=COCCN1CCC[C@@H](C(=O)O)C1)c1ccccc1Cl` [Example 30, (R)-1-[2-[[2-(2-Chlorophenyl)-2-(2-methylphenyl)ethenyl]oxy]ethyl]-3-piperidine carboxylic acid hydrochloride] showed an IC50 of 12 nM.

A further test relates to GABA uptake.
Experiment: not given
Particulars: oral; cited from earlier work.
`O=C(O)C1CCCN(CCC=C(c2ccccc2)c2cccs2)C1` (stereo not shown) [SK&F 100604J, N-(4-phenyl-4-(2-thienyl)-3-butenyl)nipecotic acid]: the “orally active inhibitors of GABA uptake” value is “orally active inhibitors of GABA uptake”.

For the compound `O=C(O)C1CCCN(CCC=C(c2ccccc2)c2ccccc2)C1` (stereo not shown) [SK&F 89976A, N-(4,4-diphenyl-3-butenyl)nipecotic acid], the “orally active inhibitors of GABA uptake” value was “orally active inhibitors of GABA uptake”.

On to `O=C(O)C1=CCCN(CCC=C(c2ccccc2)c2ccccc2)C1` [SK&F 100330A, N-(4,4-diphenyl-3-butenyl)guvacine], for which the “orally active inhibitors of GABA uptake” value is listed as “orally active inhibitors of GABA uptake”.

Regarding `O=C(O)CC1CCN(CCC=C(c2ccccc2)c2ccccc2)C1` (stereo not drawn) [SK&F 100561, N-(4,4-diphenyl-3-butenyl)homo-β-proline], the “orally active inhibitors of GABA uptake” value is reported as “orally active inhibitors of GABA uptake”.

For another test, the system named is GABA uptake from the synaptic cleft into presynaptic nerve terminals and glial cells.
Experiment: not given
Particulars: cited from earlier work.
With `O=C(O)C1CCCNC1` (stereo not shown) [nipecotic acid, piperidine-3-carboxylic acid], the “inhibitor of GABA uptake from the synaptic cleft” value is given as “potent inhibitor of GABA uptake”.

Source of the values: patent US5071859A, “N-substituted azaheterocyclic carboxylic acids and pharmaceutical uses” (priority 1988, dated 1991).
